Results as given in patent publication US10844077B2, “Thiazolyl-containing compounds for treating proliferative diseases” (Dana-Farber Cancer Institute, Inc., priority 2014, dated 2020).

Tests used:
Test in all cases: KINATIV assay of compounds I-3 and I-9, lysate directly labeled with ATP-biotin probe (no GF)
Assay type in all cases: cell-based
kinases in BCWM.1 cells [1] = target: kinases in BCWM.1 cells (Homo sapiens, UniProt O15530); conditions: PDK1; Lys1; 1 μM, 90 min; no GF
Method: (§1) The cells were harvested and lysed. […] Bound kinases were identified and quantitated by ACTIVX as described in Patricelli et al., Biochemistry, 2007, 46(2): 350-358. The compounds were tested in duplicates against duplicate or quadruplicate control samples.

kinases in BCWM.1 cells [2] = target: kinases in BCWM.1 cells (Homo sapiens, UniProt O43318); conditions: TAK1; Lys2; 1 μM, 90 min; no GF
Method: as §1

kinases in BCWM.1 cells [3] = target: kinases in BCWM.1 cells (Homo sapiens, UniProt O95747); conditions: OSR1; Lys2; 1 μM, 90 min; no GF
Method: as §1

kinases in BCWM.1 cells [4] = target: kinases in BCWM.1 cells (Homo sapiens, UniProt P04049); conditions: RAF1; Lys2; 1 μM, 90 min; no GF
Method: as §1

kinases in BCWM.1 cells [5] = target: kinases in BCWM.1 cells (Homo sapiens, UniProt P23443); conditions: p70S6K; Lys2; 1 μM, 90 min; no GF
Method: as §1

kinases in BCWM.1 cells [6] = target: kinases in BCWM.1 cells (Homo sapiens, UniProt P42338); conditions: PIK3CB; ATP; 1 μM, 90 min; no GF
Method: as §1

kinases in BCWM.1 cells [7] = target: kinases in BCWM.1 cells (Homo sapiens, UniProt P48426); conditions: PIP4K2A; ATP; 1 μM, 90 min; no GF
Sequence of kinases in BCWM.1 cells (Homo sapiens, UniProt P48426) (P48426 2-406 limits assumed): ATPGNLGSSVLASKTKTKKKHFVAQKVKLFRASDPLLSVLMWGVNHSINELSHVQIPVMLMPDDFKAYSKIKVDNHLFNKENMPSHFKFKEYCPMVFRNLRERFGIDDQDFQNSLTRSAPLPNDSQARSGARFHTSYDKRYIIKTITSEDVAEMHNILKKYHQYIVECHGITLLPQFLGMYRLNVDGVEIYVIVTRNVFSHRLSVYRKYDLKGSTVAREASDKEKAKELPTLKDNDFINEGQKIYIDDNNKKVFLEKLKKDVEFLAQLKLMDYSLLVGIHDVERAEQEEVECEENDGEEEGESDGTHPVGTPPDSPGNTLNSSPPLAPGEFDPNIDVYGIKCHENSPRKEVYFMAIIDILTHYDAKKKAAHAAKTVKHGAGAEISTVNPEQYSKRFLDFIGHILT
Method: as §1

kinases in BCWM.1 cells [8] = target: kinases in BCWM.1 cells (Homo sapiens, UniProt P53350); conditions: PLK1; Lys1; 1 μM, 90 min; no GF
Sequence of kinases in BCWM.1 cells (Homo sapiens, UniProt P53350) (P53350 2-603 limits assumed): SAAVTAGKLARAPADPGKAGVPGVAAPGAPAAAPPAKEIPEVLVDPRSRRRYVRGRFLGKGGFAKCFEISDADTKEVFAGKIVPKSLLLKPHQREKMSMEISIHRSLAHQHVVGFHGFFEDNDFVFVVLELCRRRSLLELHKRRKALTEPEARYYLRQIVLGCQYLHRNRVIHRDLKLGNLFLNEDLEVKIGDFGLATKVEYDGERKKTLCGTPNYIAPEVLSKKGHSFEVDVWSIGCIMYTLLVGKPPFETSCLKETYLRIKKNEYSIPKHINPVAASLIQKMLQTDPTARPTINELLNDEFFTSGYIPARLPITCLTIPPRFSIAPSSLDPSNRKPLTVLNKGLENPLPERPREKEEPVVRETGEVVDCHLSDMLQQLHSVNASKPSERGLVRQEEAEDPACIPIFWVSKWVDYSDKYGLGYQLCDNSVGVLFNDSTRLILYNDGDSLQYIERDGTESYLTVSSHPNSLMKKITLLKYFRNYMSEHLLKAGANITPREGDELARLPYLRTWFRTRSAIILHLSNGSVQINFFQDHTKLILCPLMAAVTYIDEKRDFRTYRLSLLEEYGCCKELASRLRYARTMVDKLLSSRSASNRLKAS
Method: as §1

kinases in BCWM.1 cells [9] = target: kinases in BCWM.1 cells (Homo sapiens, UniProt Q13464); conditions: ROCK1; Protein Kinase Domain; 1 μM, 90 min; no GF
Sequence of kinases in BCWM.1 cells (Homo sapiens, UniProt Q13464) (Q13464 2-1354 limits assumed): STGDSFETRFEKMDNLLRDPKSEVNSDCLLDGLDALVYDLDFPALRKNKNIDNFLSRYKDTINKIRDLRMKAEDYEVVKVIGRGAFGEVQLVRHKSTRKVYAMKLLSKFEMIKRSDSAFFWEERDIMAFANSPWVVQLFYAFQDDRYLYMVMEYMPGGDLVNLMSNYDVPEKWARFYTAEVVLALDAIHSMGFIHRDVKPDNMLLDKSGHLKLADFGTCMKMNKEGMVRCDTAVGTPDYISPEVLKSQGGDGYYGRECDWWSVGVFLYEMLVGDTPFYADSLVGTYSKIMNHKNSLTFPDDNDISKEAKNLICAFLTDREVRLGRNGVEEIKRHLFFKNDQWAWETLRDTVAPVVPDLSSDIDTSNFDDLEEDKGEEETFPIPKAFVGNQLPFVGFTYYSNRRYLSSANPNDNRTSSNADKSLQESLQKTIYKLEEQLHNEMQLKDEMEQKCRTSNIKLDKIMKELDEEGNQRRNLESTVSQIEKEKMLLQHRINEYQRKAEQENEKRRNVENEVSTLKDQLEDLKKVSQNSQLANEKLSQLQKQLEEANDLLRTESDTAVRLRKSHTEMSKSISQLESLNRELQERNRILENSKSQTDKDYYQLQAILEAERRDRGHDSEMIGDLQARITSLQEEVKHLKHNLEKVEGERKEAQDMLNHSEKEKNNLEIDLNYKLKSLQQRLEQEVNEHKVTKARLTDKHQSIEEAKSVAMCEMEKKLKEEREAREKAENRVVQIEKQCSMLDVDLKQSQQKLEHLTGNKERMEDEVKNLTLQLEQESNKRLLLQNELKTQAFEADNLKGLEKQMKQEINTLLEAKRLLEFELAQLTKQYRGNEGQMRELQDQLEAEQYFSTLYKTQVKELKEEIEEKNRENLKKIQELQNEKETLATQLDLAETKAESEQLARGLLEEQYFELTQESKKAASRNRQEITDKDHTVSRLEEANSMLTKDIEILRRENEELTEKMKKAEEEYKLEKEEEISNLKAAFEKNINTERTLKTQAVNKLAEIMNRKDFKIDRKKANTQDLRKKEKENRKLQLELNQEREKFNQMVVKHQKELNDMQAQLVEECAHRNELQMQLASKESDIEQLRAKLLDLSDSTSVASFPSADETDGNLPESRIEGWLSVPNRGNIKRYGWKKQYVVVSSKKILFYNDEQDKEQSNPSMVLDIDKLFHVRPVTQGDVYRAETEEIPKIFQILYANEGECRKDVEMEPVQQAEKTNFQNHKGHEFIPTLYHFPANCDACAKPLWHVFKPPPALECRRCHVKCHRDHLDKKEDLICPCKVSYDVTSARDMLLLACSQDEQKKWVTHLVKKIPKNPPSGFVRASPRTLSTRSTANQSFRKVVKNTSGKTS
Method: as §1

kinases in BCWM.1 cells [10] = target: kinases in BCWM.1 cells (Homo sapiens, UniProt Q13523); conditions: PRP4; Lys2; 1 μM, 90 min; no GF
Sequence of kinases in BCWM.1 cells (Homo sapiens, UniProt Q13523) (Q13523 2-1007 limits assumed): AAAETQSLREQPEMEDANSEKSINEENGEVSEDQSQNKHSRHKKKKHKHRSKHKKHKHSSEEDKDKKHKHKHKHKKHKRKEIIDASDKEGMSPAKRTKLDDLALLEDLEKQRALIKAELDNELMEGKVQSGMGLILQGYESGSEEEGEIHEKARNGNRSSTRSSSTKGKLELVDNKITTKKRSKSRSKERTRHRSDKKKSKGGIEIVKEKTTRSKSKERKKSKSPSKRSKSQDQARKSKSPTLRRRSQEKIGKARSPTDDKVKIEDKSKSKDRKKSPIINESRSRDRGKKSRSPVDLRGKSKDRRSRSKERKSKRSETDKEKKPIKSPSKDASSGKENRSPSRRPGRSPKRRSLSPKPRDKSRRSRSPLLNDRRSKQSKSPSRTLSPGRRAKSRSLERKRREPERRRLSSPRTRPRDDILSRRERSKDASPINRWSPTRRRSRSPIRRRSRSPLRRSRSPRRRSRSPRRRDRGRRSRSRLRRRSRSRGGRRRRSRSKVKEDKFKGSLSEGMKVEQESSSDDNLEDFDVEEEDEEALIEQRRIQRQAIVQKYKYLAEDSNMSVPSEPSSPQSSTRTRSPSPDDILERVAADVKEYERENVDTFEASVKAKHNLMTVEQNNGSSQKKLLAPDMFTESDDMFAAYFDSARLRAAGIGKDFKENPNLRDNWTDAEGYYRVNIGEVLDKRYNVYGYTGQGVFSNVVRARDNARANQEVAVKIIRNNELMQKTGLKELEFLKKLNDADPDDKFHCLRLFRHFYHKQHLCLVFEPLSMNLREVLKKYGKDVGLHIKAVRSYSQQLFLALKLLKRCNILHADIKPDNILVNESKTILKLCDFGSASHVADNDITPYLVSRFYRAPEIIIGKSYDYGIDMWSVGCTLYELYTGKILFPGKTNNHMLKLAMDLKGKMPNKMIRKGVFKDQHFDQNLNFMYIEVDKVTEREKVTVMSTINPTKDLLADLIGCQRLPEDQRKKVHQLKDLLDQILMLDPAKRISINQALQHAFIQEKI
Method: as §1

kinases in BCWM.1 cells [11] = target: kinases in BCWM.1 cells (Homo sapiens, UniProt Q15208); conditions: NDR1; Lys2; 1 μM, 90 min; no GF
Sequence of kinases in BCWM.1 cells (Homo sapiens, UniProt Q15208) (Q15208 2-465 limits assumed): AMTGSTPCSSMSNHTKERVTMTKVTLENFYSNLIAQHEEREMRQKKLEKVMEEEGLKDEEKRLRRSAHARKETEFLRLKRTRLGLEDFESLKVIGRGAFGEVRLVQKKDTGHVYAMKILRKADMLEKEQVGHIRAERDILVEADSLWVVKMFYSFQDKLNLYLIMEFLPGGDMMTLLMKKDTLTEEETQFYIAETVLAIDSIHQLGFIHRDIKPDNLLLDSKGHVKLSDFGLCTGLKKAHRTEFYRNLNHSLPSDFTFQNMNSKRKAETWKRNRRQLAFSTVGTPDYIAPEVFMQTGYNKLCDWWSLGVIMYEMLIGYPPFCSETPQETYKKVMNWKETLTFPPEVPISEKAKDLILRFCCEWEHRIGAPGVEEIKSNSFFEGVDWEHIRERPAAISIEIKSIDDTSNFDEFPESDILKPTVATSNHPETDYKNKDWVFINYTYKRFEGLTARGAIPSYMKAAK
Method: as §1

kinases in BCWM.1 cells [12] = target: kinases in BCWM.1 cells (Homo sapiens, UniProt Q15349); conditions: RSK3 domain1; Lys2; 1 μM, 90 min; no GF
Method: as §1

kinases in BCWM.1 cells [13] = target: kinases in BCWM.1 cells (Homo sapiens, UniProt Q15418); conditions: Lys2, 1 μM, 90 min, no GF
Method: as §1

kinases in BCWM.1 cells [14] = target: kinases in BCWM.1 cells (Homo sapiens, UniProt Q16512); conditions: PKN1; Lys1; 1 μM, 90 min; no GF
Sequence of kinases in BCWM.1 cells (Homo sapiens, UniProt Q16512) (Q16512 2-942 limits assumed): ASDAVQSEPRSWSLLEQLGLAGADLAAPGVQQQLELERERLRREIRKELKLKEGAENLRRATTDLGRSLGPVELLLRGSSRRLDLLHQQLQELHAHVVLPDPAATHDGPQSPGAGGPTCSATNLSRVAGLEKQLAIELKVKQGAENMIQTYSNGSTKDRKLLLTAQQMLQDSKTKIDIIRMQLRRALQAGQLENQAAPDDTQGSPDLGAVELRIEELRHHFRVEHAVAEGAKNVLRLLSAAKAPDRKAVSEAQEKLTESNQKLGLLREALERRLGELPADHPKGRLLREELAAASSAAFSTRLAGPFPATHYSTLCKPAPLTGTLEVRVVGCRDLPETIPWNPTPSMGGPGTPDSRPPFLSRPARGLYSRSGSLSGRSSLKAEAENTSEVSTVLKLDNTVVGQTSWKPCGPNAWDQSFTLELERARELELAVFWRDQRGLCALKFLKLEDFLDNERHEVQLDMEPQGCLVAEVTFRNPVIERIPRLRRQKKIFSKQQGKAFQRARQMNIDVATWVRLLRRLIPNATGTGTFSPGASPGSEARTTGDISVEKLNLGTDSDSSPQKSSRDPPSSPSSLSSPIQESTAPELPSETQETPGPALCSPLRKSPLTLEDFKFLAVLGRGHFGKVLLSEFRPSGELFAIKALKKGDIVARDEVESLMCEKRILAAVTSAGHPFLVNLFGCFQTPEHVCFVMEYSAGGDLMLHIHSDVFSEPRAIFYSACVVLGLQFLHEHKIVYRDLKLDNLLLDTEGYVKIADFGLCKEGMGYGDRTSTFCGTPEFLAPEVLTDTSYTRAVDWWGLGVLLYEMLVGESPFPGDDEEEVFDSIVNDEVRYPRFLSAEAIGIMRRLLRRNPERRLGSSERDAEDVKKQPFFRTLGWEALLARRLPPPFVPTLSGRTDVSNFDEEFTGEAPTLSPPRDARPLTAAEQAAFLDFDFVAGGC
Method: as §1

kinases in BCWM.1 cells [15] = target: kinases in BCWM.1 cells (Homo sapiens, UniProt Q16816); conditions: PHKg1; Protein Kinase Domain; 1 μM, 90 min; no GF
Method: as §1

kinases in BCWM.1 cells [16] = target: kinases in BCWM.1 cells (Homo sapiens, UniProt Q6PHR2); conditions: ULK3; Lys2; 1 μM, 90 min; no GF
Method: as §1

kinases in BCWM.1 cells [17] = target: kinases in BCWM.1 cells (Homo sapiens, UniProt Q86SG6); conditions: NEK8; Lys2; 1 μM, 90 min; no GF
Method: as §1

kinases in BCWM.1 cells [18] = target: kinases in BCWM.1 cells (Homo sapiens, UniProt Q86Y07); conditions: VRK2; Lys2; 1 μM, 90 min; no GF
Method: as §1

kinases in BCWM.1 cells [19] = target: kinases in BCWM.1 cells (Homo sapiens, UniProt Q8TD19); conditions: NEK9; Lys2; 1 μM, 90 min; no GF
Method: as §1

kinases in BCWM.1 cells [20] = target: kinases in BCWM.1 cells (Homo sapiens, UniProt Q96Q15); conditions: SMG1; ATP; 1 μM, 90 min; no GF
Method: as §1

kinases in BCWM.1 cells [21] = target: kinases in BCWM.1 cells (Homo sapiens, UniProt Q9H2G2); conditions: SLK; Lys2; 1 μM, 90 min; no GF
Method: as §1

kinases in BCWM.1 cells [22] = target: kinases in BCWM.1 cells (Homo sapiens, UniProt Q9NRH2); conditions: SNRK; Lys2; 1 μM, 90 min; no GF
Method: as §1

kinases in BCWM.1 cells [23] = target: kinases in BCWM.1 cells (Homo sapiens, UniProt Q9NYL2); conditions: ZAK; Lys1; 1 μM, 90 min; no GF
Method: as §1

kinases in BCWM.1 cells [24] = target: kinases in BCWM.1 cells (Homo sapiens, UniProt Q9NZJ5); conditions: PEK; Lys2; 1 μM, 90 min; no GF
Method: as §1

kinases in BCWM.1 cells [25] = target: kinases in BCWM.1 cells (Homo sapiens, UniProt Q9UKE5); conditions: ZC2/TNIK; Lys1; 1 μM, 90 min; no GF
Method: as §1

kinases in BCWM.1 cells [26] = target: kinases in BCWM.1 cells (Homo sapiens, UniProt Q9UKI8); conditions: TLK1; Lys2; 1 μM, 90 min; no GF
Method: as §1

kinases in BCWM.1 cells [27] = target: kinases in BCWM.1 cells (Homo sapiens, UniProt Q9Y2H1); conditions: NDR2; Lys2; 1 μM, 90 min; no GF
Method: as §1

kinases in BCWM.1 cells [28] = target: kinases in BCWM.1 cells (Homo sapiens, UniProt Q9Y572); conditions: RIPK3; Lys2; 1 μM, 90 min; no GF
Method: as §1

## C=CC(=O)N1CC[C@H](Nc2nccc(Nc3ncc(C(=O)Nc4c(C)cccc4C)s3)n2)C1 [Example I-3]
Kinases in BCWM.1 cells [1]
  % change of MS signal compared to control sample: −8.4%
Kinases in BCWM.1 cells [2]
  % change of MS signal compared to control sample: 2.3%
Kinases in BCWM.1 cells [3]
  % change of MS signal compared to control sample: 13.8%
Kinases in BCWM.1 cells [4]
  % change of MS signal compared to control sample: −18.8%
Kinases in BCWM.1 cells [5]
  % change of MS signal compared to control sample: −77.2%
Kinases in BCWM.1 cells [6]
  % change of MS signal compared to control sample: −9.1%
Kinases in BCWM.1 cells [7]
  % change of MS signal compared to control sample: −4.9%
Kinases in BCWM.1 cells [8]
  % change of MS signal compared to control sample: 0.2%
Kinases in BCWM.1 cells [9]
  % change of MS signal compared to control sample: 2.6%
Kinases in BCWM.1 cells [10]
  % change of MS signal compared to control sample: 5.9%
Kinases in BCWM.1 cells [11]
  % change of MS signal compared to control sample: 2.3%
Kinases in BCWM.1 cells [12]
  % change of MS signal compared to control sample: 7.6%
Kinases in BCWM.1 cells [13]; RSK1 domain1
  % change of MS signal compared to control sample: 9%
Kinases in BCWM.1 cells [13]; RSK1 domain2
  % change of MS signal compared to control sample: −1.9%
Kinases in BCWM.1 cells [14]
  % change of MS signal compared to control sample: −3.3%
Kinases in BCWM.1 cells [15]
  % change of MS signal compared to control sample: 31.7%
Kinases in BCWM.1 cells [16]
  % change of MS signal compared to control sample: 8.2%
Kinases in BCWM.1 cells [17]
  % change of MS signal compared to control sample: 5.1%
Kinases in BCWM.1 cells [18]
  % change of MS signal compared to control sample: −13.9%
Kinases in BCWM.1 cells [19]
  % change of MS signal compared to control sample: 15.4%
Kinases in BCWM.1 cells [20]
  % change of MS signal compared to control sample: 0.6%
Kinases in BCWM.1 cells [21]
  % change of MS signal compared to control sample: 13%
Kinases in BCWM.1 cells [22]
  % change of MS signal compared to control sample: 46.4%
Kinases in BCWM.1 cells [23]
  % change of MS signal compared to control sample: 1.6%
Kinases in BCWM.1 cells [24]
  % change of MS signal compared to control sample: −12.8%
Kinases in BCWM.1 cells [25]
  % change of MS signal compared to control sample: −15.6%
Kinases in BCWM.1 cells [26]
  % change of MS signal compared to control sample: −0.7%
Kinases in BCWM.1 cells [27]
  % change of MS signal compared to control sample: 11.6%
Kinases in BCWM.1 cells [28]
  % change of MS signal compared to control sample: 13.4%

## CCC(=O)N1CC[C@H](Nc2nccc(Nc3ncc(C(=O)Nc4c(C)cccc4C)s3)n2)C1 [Example I-9]
Kinases in BCWM.1 cells [1]
  % change of MS signal compared to control sample: −6.4%
Kinases in BCWM.1 cells [2]
  % change of MS signal compared to control sample: −1.4%
Kinases in BCWM.1 cells [3]
  % change of MS signal compared to control sample: 2.7%
Kinases in BCWM.1 cells [4]
  % change of MS signal compared to control sample: 9.9%
Kinases in BCWM.1 cells [5]
  % change of MS signal compared to control sample: 15.9%
Kinases in BCWM.1 cells [6]
  % change of MS signal compared to control sample: 33.6%
Kinases in BCWM.1 cells [7]
  % change of MS signal compared to control sample: −10.5%
Kinases in BCWM.1 cells [8]
  % change of MS signal compared to control sample: 2.1%
Kinases in BCWM.1 cells [9]
  % change of MS signal compared to control sample: −7.3%
Kinases in BCWM.1 cells [10]
  % change of MS signal compared to control sample: −24.8%
Kinases in BCWM.1 cells [11]
  % change of MS signal compared to control sample: −4.2%
Kinases in BCWM.1 cells [12]
  % change of MS signal compared to control sample: −1.4%
Kinases in BCWM.1 cells [13]; RSK1 domain1
  % change of MS signal compared to control sample: −2%
Kinases in BCWM.1 cells [13]; RSK1 domain2
  % change of MS signal compared to control sample: −9.7%
Kinases in BCWM.1 cells [14]
  % change of MS signal compared to control sample: −4.9%
Kinases in BCWM.1 cells [15]
  % change of MS signal compared to control sample: −51%
Kinases in BCWM.1 cells [16]
  % change of MS signal compared to control sample: −16.4%
Kinases in BCWM.1 cells [17]
  % change of MS signal compared to control sample: −14.1%
Kinases in BCWM.1 cells [18]
  % change of MS signal compared to control sample: 6.2%
Kinases in BCWM.1 cells [19]
  % change of MS signal compared to control sample: −21.3%
Kinases in BCWM.1 cells [20]
  % change of MS signal compared to control sample: −11.6%
Kinases in BCWM.1 cells [21]
  % change of MS signal compared to control sample: −6%
Kinases in BCWM.1 cells [22]
  % change of MS signal compared to control sample: 28.6%
Kinases in BCWM.1 cells [23]
  % change of MS signal compared to control sample: −9.3%
Kinases in BCWM.1 cells [24]
  % change of MS signal compared to control sample: 22.1%
Kinases in BCWM.1 cells [25]
  % change of MS signal compared to control sample: 23.4%
Kinases in BCWM.1 cells [26]
  % change of MS signal compared to control sample: −7.9%
Kinases in BCWM.1 cells [27]
  % change of MS signal compared to control sample: −5.6%
Kinases in BCWM.1 cells [28]
  % change of MS signal compared to control sample: −15%
